The text below walks through data of PMC3352337, “Synergistic Antimycobacterial Actions of Knowltonia vesicatoria (L.f) Sims” (Evidence-based Complementary and Alternative Medicine : eCAM, 2012).

The structures appear in SMILES notation. ≈ marks a conversion by molar mass, not a printed value. Where two headings read alike, the source gives them in different places. Marks after values point to notes of the source that are not given here. *1 amine or outer side, *2 acyl side, *3 side chain or, on linkers, in order; H or OH if unused. Where a SMILES comes first, the peptide text is derived from it. Bridges are numbered along the chain shown (N, C = ends). Roman numbers before positions name the chains, in order. [ ]: non-standard residue; d: D form. Actinocin(9to1) = Cc1c2oc3c(C)ccc(C(=O)[*:1])c3nc-2c(C(=O)[*:2])c(N)c1=O; NMeV = CN[C@H](C(=O)O)C(C)C; Sar = CNCC(=O)O

Broadly, the viability is a per cent measure of how many cells are alive, often set against a control.

The subject of data set [1] is M. tuberculosis. The conditions noted are these: cited from earlier work.
The test system of data set [2] is Mycobacterium smegmatis (MC^2 155). Nature of the data set: Microdilution (microplate INT) susceptibility assay on M. smegmatis. The format is cell-based. The following applies: Mycolicibacterium smegmatis. Here is the method: Cryopreserved or freshly scraped colonies were suspended in fresh Middlebrook 7H9 broth (Sigma-Aldrich Chemical Co., South Africa) and incubated for 24 h at 37°C. The overnight liquid culture was then transferred to a sterile test tube containing 20–25 glass beads (with a 2.00 mm diameter) and homogenised by using a vortex mixer (Heidolph, Germany) for 5–10 min. The broth culture was then left still for 5–10 min to let larger clumps of mycobacteria settle. The supernatant was carefully decanted to a sterile flask and adjusted with Middlebrook 7H9 broth base to an optical density of 0.2 (log phase) at 550 nm (Beckman DU-720 UV spectrophotometer), yielding 1.26 × 10^8 colony-forming units per millilitre (CFU/mL). The microdilution test was performed in 96-well microtiter plates as described earlier.
The plant extract and fractions were dissolved in 10% dimethyl sulfoxide (DMSO) to obtain a stock concentration of 10 mg/mL. Ciprofloxacin (Sigma-Aldrich Chemical Co., South Africa) at final concentrations ranging from 2.00 × 10^−3 to 7.80 × 10^−5 mg/mL served as the positive drug control. Serial twofold dilutions of each test sample were made with Middlebrook 7H9 broth base (Sigma-Aldrich Chemical Co., South Africa) to yield volumes of […] with final concentrations ranging from 2.50 to 0.08 mg/mL. […]
On the technique in general: Dilution methods test growth across graded concentrations, often in twofold steps.

Data set [3] is described as follows: XTT cytotoxicity assay on PMA-differentiated U937 cells. The following applies: human, PMA-differentiated U937 cells (macrophage-like), pH 7.2. In general terms: Tetrazolium assays rely on reduction of a dye to a coloured formazan, in cell work by metabolically active cells.
For data set [4], the system named is U937 cells. Described as above. The following applies: for IC50: Homo sapiens, U-937, 72 h.
In data set [5] the test system is M. tuberculosis H37Rv (ATCC 27294). The data set can be described thus: microbe, parasite or virus in culture. In kind it is cell-based, Mycobacterium tuberculosis. The following applies: for ΔGI4-3 ± SD: BACTEC growth index change, V2 10^-2 inoculum control 22.0 ± 2.94; for MIC: Mycobacterium tuberculosis, read-out: MIC (minimum inhibitory concentration).
Data set [6] concerns M. tuberculosis. Nature of the data set: Microplate assay MIC against M. tuberculosis (compound 2). In kind it is cell-based, Mycobacterium tuberculosis. The conditions noted are these: BACTEC MIC not determined.
Setting [7] is: read-out: IC50 (fifty percent inhibitory concentration).

With `C=CC(O)(CC[C@@H](C)[C@H]1CC[C@H]2[C@@H]3CC=C4C[C@@H](O)CC[C@]4(C)[C@H]3CC[C@]12C)C(C)C` (some centres unmarked) [saringosterol], the MIC in data set [1] (M. tb ref 34) is 0.250 µg/mL (≈ 0.583 µM).

For `CC[C@H](/C=C/[C@@H](C)[C@H]1CC[C@H]2[C@@H]3CC=C4C[C@@H](O)CC[C@]4(C)[C@H]3CC[C@]12C)C(C)C` [stigmasterol], the MIC in data set [1] (phytosterols from Morinda citrifolia against M. tb ref 33 (Saludes et al.)) was 32.00 µg/mL (≈ 77.5 µM).

As to `O=C(O)c1cn(C2CC2)c2cc(N3CCNCC3)c(F)cc2c1=O` [Ciprofloxacin], the MIC in data set [2] (MC^2155, 24 h, INT microplate, read-out: MIC (minimum inhibitory concentration)) is 1.25 µg/mL (≈ 3.77 µM). Further, in data set [2] (MC^2155, 48 h subculture, INT, read-out: MBC (minimum bactericidal concentration)), the MBC amounted to 1.25 µg/mL (≈ 3.77 µM).

With `NNC(=O)c1ccncc1` [INH, isoniazid], the viability at 72 h, 200 μg/mL in data set [3] was 80%. In data set [4] (setting [7]), the IC50 is over 200 µg/mL. The “ΔGI4-3 ± SD” value in data set [5] was −2.50 ± 2.12. Moreover, in data set [5] (BACTEC radiometric), the “MIC (minimum inhibitory concentration)” value is 0.20 µg/mL (≈ 1.46 µM) and the MIC was 0.2 µg/mL (≈ 1.46 µM).

As for `Cc1c2oc3c(C)ccc(C(=O)N[C@@H]4C(=O)N[C@H](C(C)C)C(=O)N5CCC[C@H]5C(=O)N(C)CC(=O)N(C)[C@@H](C(C)C)C(=O)O[C@@H]4C)c3nc-2c(C(=O)N[C@@H]2C(=O)N[C@H](C(C)C)C(=O)N3CCC[C@H]3C(=O)N(C)CC(=O)N(C)[C@@H](C(C)C)C(=O)O[C@@H]2C)c(N)c1=O` [Actinomycin D] (I: T[dV]P[Sar][NMeV] / II: T[dV]P[Sar][NMeV]; ester I:1-I:C, II:1-II:C; linker I:N-II:N via Actinocin(9to1)), the IC50 in data set [4] (read-out: IC50 (fifty percent inhibitory concentration), U937 macrophages, 72 h, XTT) came out at 0.0038 µg/mL (≈ 0.00303 µM). For the same compound, the “IC50 (fifty percent inhibitory concentration)” value in data set [4] (U937 macrophages, 72 h, XTT) is reported as 3.820 ± 0.258 ×10^−3 μg/mL.

On to `O=C1C=CC(CO)O1` (centres unmarked) [Compound (2), 5-(hydroxymethyl)furan-2(5H)-one], for which the “MIC determined via microplate assay” value in data set [6] was 100.0^k μg/mL. Also, the MIC in data set [6] (Mycobacterium tuberculosis, read-out: MIC determined via microplate assay) is 200 µg/mL (≈ 1750 µM). Also, the IC50 in data set [4] (setting [7]) was 44.7 ± 0.5 µg/mL (≈ 392 µM).

Turning to `CCC(=CC[C@@H](C)[C@H]1CC[C@H]2[C@@H]3CC=C4CC(O)CC[C@]4(C)[C@H]3CC[C@]12C)C(C)C` (some centres unmarked) [Compound (1), Stigmasta-5,23-dien-3-ol], the IC50 in data set [4] (setting [7]) was found to be 16.41 ± 0.135 µg/mL (≈ 39.8 µM). The “ΔGI4-3 ± SD” value in data set [5] was −9.00 ± 1.41. Further, the MIC in data set [5] (BACTEC radiometric) was determined as 50 µg/mL (≈ 121 µM).
